Test results taken from ChEMBL document CHEMBL5532665 (J Med Chem, 2024).

Legend:
Mu-type opioid receptor [1] = biological target: T1, Mu-type opioid receptor (Homo sapiens, UniProt P35372); experiment: Agonist activity at human MOR expressed in CHO-K1 cells co-expressing G-alpha15 by calcium mobilization assay; format: functional, cell-based; details: cho-k1
[2] = biological target: T2, Kappa-type opioid receptor (Homo sapiens, UniProt P41145); experiment: Agonist activity at human KOR expressed in CHO-K1 cells co-expressing G-alpha15 by calcium mobilization assay; format: functional, cell-based; details: cho-k1
T2 sequence (P41145 whole entry): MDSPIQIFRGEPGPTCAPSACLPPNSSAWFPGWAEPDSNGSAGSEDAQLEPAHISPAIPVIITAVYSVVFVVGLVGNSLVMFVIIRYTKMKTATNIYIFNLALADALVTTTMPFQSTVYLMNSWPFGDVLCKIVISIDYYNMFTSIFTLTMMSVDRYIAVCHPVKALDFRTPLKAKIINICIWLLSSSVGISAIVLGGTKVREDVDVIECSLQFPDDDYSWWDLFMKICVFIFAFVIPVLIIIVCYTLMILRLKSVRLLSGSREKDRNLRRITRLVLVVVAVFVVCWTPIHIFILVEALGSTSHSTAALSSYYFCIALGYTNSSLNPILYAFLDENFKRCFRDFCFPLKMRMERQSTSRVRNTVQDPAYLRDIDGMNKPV

[3] = biological target: T3, Delta-type opioid receptor (Homo sapiens, UniProt P41143); experiment: Agonist activity at human DOR expressed in CHO-K1 cells co-expressing G-alpha15 by calcium mobilization assay; format: functional, cell-based; details: cho-k1
T3 sequence (P41143 whole entry): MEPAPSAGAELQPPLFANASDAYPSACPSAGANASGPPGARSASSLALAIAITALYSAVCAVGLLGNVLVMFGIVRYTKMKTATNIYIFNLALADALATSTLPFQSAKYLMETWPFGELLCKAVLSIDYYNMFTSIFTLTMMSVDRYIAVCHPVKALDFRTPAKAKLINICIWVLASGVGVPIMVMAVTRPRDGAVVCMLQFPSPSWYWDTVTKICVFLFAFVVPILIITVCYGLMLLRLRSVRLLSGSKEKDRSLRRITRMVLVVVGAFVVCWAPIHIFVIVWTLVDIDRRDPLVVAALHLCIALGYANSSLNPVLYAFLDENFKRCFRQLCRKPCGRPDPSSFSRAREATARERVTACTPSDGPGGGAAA

Mus musculus [4] = experiment: Antinociceptive activity in Kunming mouse model assessed as latency of tail withdrawal at 138.8 nmol/kg, sc measured for 10 mins by tail-flick test relative to control; format: functional
Mus musculus [5] = experiment: Antinociceptive activity in Kunming mouse model assessed as latency of tail withdrawal at 138.8 nmol/kg, sc measured for 30 mins by tail-flick test relative to control; format: functional; details: 0.5 h
Mus musculus [6] = experiment: Antinociceptive activity in Kunming mouse model assessed as latency of tail withdrawal at 138.8 nmol/kg, sc measured for 120 mins by tail-flick test relative to control; format: functional; details: 2 h
Mus musculus [7] = experiment: Antinociceptive activity in Kunming mouse model assessed as latency of tail withdrawal at 138.8 nmol/kg, sc measured for 60 mins by tail-flick test relative to control; format: functional; details: 1 h
Mu-type opioid receptor [8] = biological target: T1, Mu-type opioid receptor; experiment: Agonist activity at human MOR expressed in CHO-K1 cells co-expressing G-alpha15 by calcium mobilization assay relative to control; format: functional, cell-based; details: filed as agonist
Mus musculus [9] = experiment: Antinociceptive activity in Kunming mouse model assessed as latency of tail withdrawal at 1416 nmol/kg, sc measured for 60 mins by tail-flick test relative to control; format: functional; details: 1 h
Mus musculus [10] = experiment: Antinociceptive activity in Kunming mouse model assessed as latency of tail withdrawal at 1416 nmol/kg, sc measured for 30 mins by tail-flick test relative to control; format: functional; details: 0.5 h
Mus musculus [11] = experiment: Antinociceptive activity in Kunming mouse model assessed as latency of tail withdrawal at 1416 nmol/kg, sc measured for 120 mins by tail-flick test relative to control; format: functional; details: 2 h
Mus musculus [12] = experiment: Antinociceptive activity in Kunming mouse model assessed as latency of tail withdrawal at 1416 nmol/kg, sc measured for 10 mins by tail-flick test relative to control; format: functional
Mus musculus [13] = experiment: Inhibition of gastrointestinal motility in fasted Kunming mouse model treated subcutaneously for 15 mins followed by charcoal-gum arabic treatment measured after 30 mins; format: functional; details: 0.75 h, route sc, time 45 min
Mus musculus [14] = experiment: Antinociceptive activity in Kunming mouse model assessed as latency of tail withdrawal at 13.9 nmol/kg, sc measured for 30 mins by tail-flick test relative to control; format: functional; details: 0.5 h
Mus musculus [15] = experiment: Antinociceptive activity in Kunming mouse model administered subcutaneously measured for 5 to 15 mins by acetic acid-induced writhing test; format: functional; details: route sc, time 5-15 min
Mus musculus [16] = experiment: Antinociceptive activity in Kunming mouse model administered subcutaneously by tail-flick test; format: functional; details: route sc
Mus musculus [17] = experiment: Antinociceptive activity in Kunming mouse model assessed as latency of tail withdrawal at 13.9 nmol/kg, sc measured for 120 mins by tail-flick test relative to control; format: functional; details: 2 h
Mus musculus [18] = experiment: Antinociceptive activity in Kunming mouse model assessed as latency of tail withdrawal at 13.9 nmol/kg, sc measured for 10 mins by tail-flick test relative to control; format: functional
Mus musculus [19] = experiment: Antinociceptive activity in Kunming mouse model assessed as latency of tail withdrawal at 13.9 nmol/kg, sc measured for 60 mins by tail-flick test relative to control; format: functional; details: 1 h
Mus musculus [20] = experiment: Antinociceptive activity in Kunming mouse model administered orally by tail-flick test; format: functional; details: route po
[21] = Stability in mouse plasma assessed as half life at 0.01 mol/L measured for 72 hrs by RP-HPLC analysis; format: ADME, cell-free
[22] = biological target: T2, Kappa-type opioid receptor; experiment: Agonist activity at human KOR expressed in CHO-K1 cells co-expressing G-alpha15 by calcium mobilization assay relative to control; format: functional, cell-based; details: filed as agonist
[23] = biological target: T3, Delta-type opioid receptor; experiment: Agonist activity at human DOR expressed in CHO-K1 cells co-expressing G-alpha15 by calcium mobilization assay relative to control; format: functional, cell-based; details: filed as agonist

T1 sequence (P35372 whole entry): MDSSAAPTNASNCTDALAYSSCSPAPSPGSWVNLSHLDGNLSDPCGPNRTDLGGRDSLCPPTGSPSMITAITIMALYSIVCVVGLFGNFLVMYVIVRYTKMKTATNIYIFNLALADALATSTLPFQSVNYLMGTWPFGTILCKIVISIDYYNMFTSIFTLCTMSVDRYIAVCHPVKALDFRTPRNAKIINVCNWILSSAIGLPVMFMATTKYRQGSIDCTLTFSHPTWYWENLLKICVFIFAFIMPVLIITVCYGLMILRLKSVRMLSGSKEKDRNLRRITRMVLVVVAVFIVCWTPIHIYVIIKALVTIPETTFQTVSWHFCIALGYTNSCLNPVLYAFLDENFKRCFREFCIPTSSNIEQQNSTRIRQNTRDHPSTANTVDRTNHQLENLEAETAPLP

`Cc1ccc(C[C@@H]2NC(=O)CNC(=O)[C@H](NC(=O)[C@@H](N)Cc3ccc(O)cc3)CCCCNC(=O)C[C@@H](C(=O)N3CCC[C@@H]3C(N)=O)NC2=O)cc1` gave an EC50 (Mu-type opioid receptor [1]) of 29.1 nM, an EC50 [2] of 2430 nM and an EC50 [3] of 22.2 nM.
In the case of `NC(=O)[C@H]1CCCN1C(=O)[C@@H]1CC(=O)NCCCC[C@@H](NC(=O)[C@@H](N)Cc2ccc(O)cc2)C(=O)NCCC(=O)N[C@@H](Cc2ccccc2)C(=O)N1` [listing 1 of 2 here], the MPE (Mus musculus [4]) is reported as 45.6%, the MPE (Mus musculus [5]) is reported as 92.6% and the MPE (Mus musculus [6]) is reported as 40.6%. It also gave an MPE (Mus musculus [7]) of 71%.
With `NC(=O)[C@@H]1CCCN1C(=O)[C@H]1CC(=O)NCCCC[C@@H](NC(=O)[C@@H](N)Cc2ccc(O)cc2)C(=O)NCCC(=O)N[C@@H](Cc2ccccc2)C(=O)N1` the Emax (Mu-type opioid receptor [8]) was 95.9%.
For `NC(=O)CNC(=O)[C@@H]1CC(=O)NCCCC[C@@H](NC(=O)[C@@H](N)Cc2ccc(O)cc2)C(=O)NCC(=O)N[C@@H](Cc2ccccc2)C(=O)N1`, the EC50 (Mu-type opioid receptor [1]) was 113 nM, the EC50 [2] was 9200 nM and the EC50 [3] was 623 nM.
Work on `NC(=O)[C@H]1CCCN1C(=O)[C@@H]1CC(=O)NCCCC[C@@H](NC(=O)[C@@H](N)Cc2ccc(O)cc2)C(=O)NCC(=O)N(Cc2ccccc2)CC(=O)N1` yielded an MPE (Mus musculus [9]) of 76.3%, an MPE (Mus musculus [10]) of 91.4% and an MPE (Mus musculus [11]) of 7.7%. It also gave an MPE (Mus musculus [12]) of 46.8%.
Work on `CN1C(=O)CNC(=O)[C@H](NC(=O)[C@@H](N)Cc2ccc(O)cc2)CCCCNC(=O)C[C@@H](C(=O)N2CCC[C@@H]2C(N)=O)NC(=O)[C@@H]1Cc1ccccc1` yielded an ED50 (Mus musculus [13]) of 0.0326 µmol/kg, an MPE (Mus musculus [14]) of 93.8% and an ED50 (Mus musculus [15]) of 0.0025 µmol/kg. The ED50 (Mus musculus [16]) was 0.0006 µmol/kg, the MPE (Mus musculus [17]) was 75.3% and the MPE (Mus musculus [18]) was 81.9%. The MPE (Mus musculus [19]) was 93.9% and the ED50 (Mus musculus [20]) was 0.0003 µmol/kg.
Work on `NC(=O)[C@H]1CCCN1C(=O)[C@@H]1CC(=O)NCCCC[C@@H](NC(=O)[C@@H](N)Cc2ccc(O)cc2)C(=O)NCC(=O)N[C@@H](CC2CCCCC2)C(=O)N1` yielded an EC50 (Mu-type opioid receptor [1]) of 43.2 nM and an EC50 [3] of 804 nM.
For `C[C@H]1NC(=O)[C@H](NC(=O)[C@@H](N)Cc2ccc(O)cc2)CCCCNC(=O)C[C@H](C(=O)N2CCC[C@H]2C(N)=O)NC(=O)[C@H](Cc2ccccc2)NC1=O`, the EC50 (Mu-type opioid receptor [1]) was 62.4 nM, the MPE (Mus musculus [14]) was 91.4% and the half-life at 0.01 mol/L [21] was greater than 72 h. It also gave an MPE (Mus musculus [17]) of 44.4%, an Emax (Mu-type opioid receptor [8]) of 115% and an MPE (Mus musculus [18]) of 63.6%. For the same compound, the MPE (Mus musculus [19]) was 88.4%.
Compound `Cc1cc(O)cc(C)c1C[C@H](N)C(=O)N[C@@H]1CCCCNC(=O)C[C@@H](C(=O)N2CCC[C@@H]2C(N)=O)NC(=O)[C@H](Cc2ccccc2)NC(=O)CNC1=O` has an EC50 (Mu-type opioid receptor [1]) of 7.3 nM, an EC50 [2] of 3550 nM and an EC50 [3] of 1.2 nM.
Compound `NC(=O)[C@H]1CCCN1C(=O)[C@@H]1CC(=O)NCCCC[C@@H](NC(=O)[C@@H](N)Cc2ccc(O)cc2)C(=O)NCC(=O)N[C@@H](Cc2ccc3ccccc3c2)C(=O)N1` has an EC50 (Mu-type opioid receptor [1]) of 1.8 nM, a half-life at 0.01 mol/L [21] of 20.3 h and an EC50 [3] of 2.2 nM.
Work on `NC(=O)[C@H]1CCCN1C(=O)[C@@H]1CC(=O)NCCCC[C@@H](NC(=O)[C@@H](N)Cc2ccc(O)cc2)C(=O)NCC(=O)N[C@@H](CCc2ccccc2)C(=O)N1` yielded an EC50 (Mu-type opioid receptor [1]) of 184 nM and an EC50 [3] of 64.4 nM.
With `NC(=O)[C@@H]1CC(=O)NCCCC[C@@H](NC(=O)[C@@H](N)Cc2ccc(O)cc2)C(=O)NCC(=O)N[C@@H](Cc2ccccc2)C(=O)N1` the EC50 (Mu-type opioid receptor [1]) was 1.4 nM, the EC50 [2] was 1290 nM and the EC50 [3] was 12.5 nM.
Compound `NC(=O)[C@H]1CCCN1C(=O)[C@@H]1CC(=O)NCCCC[C@@H](NC(=O)[C@@H](N)Cc2ccc(O)cc2)C(=O)NCCC(=O)N[C@@H](Cc2ccccc2)C(=O)N1` [listing 2 of 2 here] has an EC50 (Mu-type opioid receptor [1]) of 974 nM.
In the case of `C[C@@H]1NC(=O)[C@H](NC(=O)[C@@H](N)Cc2ccc(O)cc2)CCCCNC(=O)C[C@H](C(=O)N2CCC[C@H]2C(N)=O)NC(=O)[C@H](Cc2ccccc2)NC1=O`, the Emax [22] is reported as 51.4%, the EC50 (Mu-type opioid receptor [1]) is reported as 8.2 nM and the MPE (Mus musculus [4]) is reported as 70.9%. It also gave an MPE (Mus musculus [5]) of 88.9%, an Emax [23] of 96.6% and an MPE (Mus musculus [6]) of 27.4%. The MPE (Mus musculus [7]) was 70.1%, the Emax (Mu-type opioid receptor [8]) was 93.7% and the EC50 [2] was 4820 nM. For the same compound, the EC50 [3] was 52 nM.
`Cc1ccc(C[C@@H]2NC(=O)CNC(=O)[C@H](NC(=O)[C@@H](N)Cc3ccc(O)cc3)CCCCNC(=O)C[C@H](C(=O)N3CCC[C@H]3C(N)=O)NC2=O)cc1` gave an Emax [22] of 66.7%, an Emax [23] of 115% and an Emax (Mu-type opioid receptor [8]) of 109%.
